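Dose response: 5 concentrations. Exposure: 48 h. Format: 96-well plates. Endpoint: linear interpolation; highest concentration if not reached. The concentration for full growth arrest is given as TGI.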
Assays:
Experiment in all cases: NCI-60 cell line screen, 48 h
SR leukemia = test system: SR leukemia
K-562 leukemia = test system: K-562 leukemia
SK-MEL-5 melanoma = test system: SK-MEL-5 melanoma
COLO 205 colon = test system: COLO 205 colon
CAKI-1 renal = test system: CAKI-1 renal
NCI-H460 lung = test system: NCI-H460 lung
MDA-N = test system: MDA-N
HT29 colon = test system: HT29 colon
SF-539 CNS = test system: SF-539 CNS
EKVX NSCLC = test system: EKVX NSCLC
ACHN renal = test system: ACHN renal
U251 CNS = test system: U251 CNS
RXF 393 renal = test system: RXF 393 renal
HOP-62 NSCLC = test system: HOP-62 NSCLC
CCRF-CEM leukemia = test system: CCRF-CEM leukemia
HCC-2998 colon = test system: HCC-2998 colon
MDA-MB-435 = test system: MDA-MB-435
UACC-257 melanoma = test system: UACC-257 melanoma
MOLT-4 leukemia = test system: MOLT-4 leukemia
KM12 colon = test system: KM12 colon
NCI-H522 lung = test system: NCI-H522 lung
MDA-MB-231 breast = test system: MDA-MB-231 breast
TK-10 renal = test system: TK-10 renal
SF-295 CNS = test system: SF-295 CNS
IGROV1 ovarian = test system: IGROV1 ovarian
A498 renal = test system: A498 renal
OVCAR-5 ovarian = test system: OVCAR-5 ovarian
M14 melanoma = test system: M14 melanoma
HOP-92 NSCLC = test system: HOP-92 NSCLC
786-0 renal = test system: 786-0 renal
SF-268 CNS = test system: SF-268 CNS
HL-60(TB) leukemia = test system: HL-60(TB) leukemia
DU-145 prostate = test system: DU-145 prostate
SK-MEL-28 melanoma = test system: SK-MEL-28 melanoma
RPMI-8226 leukemia = test system: RPMI-8226 leukemia
HS 578T breast = test system: HS 578T breast
MCF7 breast = test system: MCF7 breast
HCT-116 colon = test system: HCT-116 colon
SNB-19 CNS = test system: SNB-19 CNS
NCI-H226 lung = test system: NCI-H226 lung
OVCAR-4 ovarian = test system: OVCAR-4 ovarian
NCI-H23 lung = test system: NCI-H23 lung
LOX IMVI melanoma = test system: LOX IMVI melanoma
NCI/ADR-RES ovarian = test system: NCI/ADR-RES ovarian
OVCAR-3 ovarian = test system: OVCAR-3 ovarian
SK-OV-3 ovarian = test system: SK-OV-3 ovarian
UACC-62 melanoma = test system: UACC-62 melanoma
SN12C renal = test system: SN12C renal
SW-620 colon = test system: SW-620 colon
SNB-75 CNS = test system: SNB-75 CNS
A549 NSCLC = test system: A549 NSCLC
OVCAR-8 ovarian = test system: OVCAR-8 ovarian
MALME-3M melanoma = test system: MALME-3M melanoma
HCT-15 colon = test system: HCT-15 colon
T-47D breast = test system: T-47D breast

Measured: TGI

C=CO/N=[N+](\[O-])N(CC)CC
> 100 µM: all assays above

From PubChem BioAssay (NCI)
